Literature values as cited in patent US4127517A, “Novel docosapeptides, intermediates therefore and pharmaceutical compositions and methods employing said docosapeptides” (priority 1977, dated 1978).

Experiments:
[1] = system: brain opiate receptor sites
[2] = injected directly into the brain of the rat

## H-Tyr-Gly-Gly-Phe-Met-OH [methionine enkephalin]
[1]
  binding to partially purified brain opiate receptor sites: binds stereo-specifically
[2]
  analgesic activity: weak analgesic agent of short duration
